PubChem BioAssay (NCI)
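Cultured in 96-well plates, cells were exposed to test compound for 48 hours across five concentrations. Abbreviation: GI50, concentration required for 50% inhibition of growth. Definition used: TGI = concentration required for complete inhibition of growth.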

Tests used:
Assay in all cases: growth of human tumour cells (NCI), 48 h
UACC-62 melanoma = system: UACC-62 melanoma
MOLT-4 leukemia = system: MOLT-4 leukemia
SF-539 CNS = system: SF-539 CNS
IGROV1 ovarian = system: IGROV1 ovarian
ACHN renal = system: ACHN renal
SR leukemia = system: SR leukemia
SNB-75 CNS = system: SNB-75 CNS
NCI-H460 lung = system: NCI-H460 lung
786-0 renal = system: 786-0 renal
NCI-H226 lung = system: NCI-H226 lung

Compound | GI50 (UACC-62 melanoma) [µM] | TGI (UACC-62 melanoma) [µM] | GI50 (MOLT-4 leukemia) [µM] | TGI (MOLT-4 leukemia) [µM] | GI50 (SF-539 CNS) [µM] | TGI (SF-539 CNS) [µM] | GI50 (IGROV1 ovarian) [µM] | TGI (IGROV1 ovarian) [µM] | GI50 (ACHN renal) [µM] | TGI (ACHN renal) [µM] | GI50 (SR leukemia) [µM] | TGI (SR leukemia) [µM] | GI50 (SNB-75 CNS) [µM] | TGI (SNB-75 CNS) [µM] | GI50 (NCI-H460 lung) [µM] | TGI (NCI-H460 lung) [µM] | GI50 (786-0 renal) [µM] | TGI (786-0 renal) [µM] | GI50 (NCI-H226 lung) [µM] | TGI (NCI-H226 lung) [µM]
CO[C@H]1CC(c2ccc[nH]2)=N[C@]12O[C@@H](C)C[C@@H]1CCCCCCCc3ccc([nH]3)[C@H]12 | 0.659 | 1.45 | 1.01 | 13.6 | 1.01 | 9.26 | 1.38 | 10.8 | 1.22 | 4.76 | 0.72 | 4.93 | 0.825 | 2.79 | 0.813 | 6.07 | 1.25 | 6.53 | 0.929 | 5.25
COc1cc(/C=C/C(=O)c2cccnc2Nc2ccc(F)cc2)cc(OC)c1OC | 2.35 | 6.58 | 2.75 | 9.52 | 2.85 | 7.29 | 7.42 | 50.3 | 2.84 | 7.2 | 1.93 | 8.36 | 1.93 | 8.51 | 2.83 | 10.1 | 3.9 | 13 | 1.79 | 3.78
CC(C)c1cc(OCC(O)CO)cc(C(C)C)c1 (stereo not given) | – | > 100 | – | > 100 | – | > 100 | – | > 100 | – | > 100 | – | > 100 | – | > 100 | – | > 100 | – | > 100 | – | > 100
O=S(=O)(NCCNc1nccc(-c2c(-c3ccc(F)cc3)nc3sccn23)n1)c1ccccc1 | 5.13 | 23.2 | 4.84 | 57.5 | 19 | > 100 | 2.99 | 32.7 | 1.69 | > 100 | 3.46 | > 100 | 1.61 | 56.2 | 2.72 | > 100 | 4.77 | > 100 | 7.73 | > 100
O=C(CC1C(=O)Nc2ccccc2S1=O)Nc1ccc(Cl)cc1 (stereo not given) | – | > 100 | – | > 100 | – | 51.1 | – | > 100 | – | > 100 | – | > 100 | – | > 100 | – | > 100 | – | > 100 | – | > 100
O=C(/C=C1/Nc2ccc([N+](=O)[O-])cc2NC1O)c1cccc([N+](=O)[O-])c1 (stereo not given) | – | > 100 | – | > 100 | – | 87.2 | – | > 100 | – | > 100 | – | > 100 | – | > 100 | – | > 100 | – | 47.8 | – | > 100
CC(C)COC(=O)c1ccc2[nH]c(O)c(C=Nc3ccc(S(N)(=O)=O)cc3)c2c1 | 1.91 | 6.08 | 1.68 | 11 | 0.975 | 3.67 | 1.75 | 8.01 | 0.885 | 5.8 | 0.36 | 6.43 | 1.77 | 5.15 | 0.787 | 3.41 | 1.21 | 4.24 | 1.73 | 6.79
